A compilation of properties of binary mixtures (doi:10.1021/je050444g)

Assay: excess molar enthalpy (molar enthalpy of mixing); xn = mol fraction of the nth substance listed
Conditions: 308.15 K, 100 kPa

`CS(C)=O` + COC(=O)OC showed an excess molar enthalpy (x1 = 0.0473) of 0.0447 kcal/mol, an excess molar enthalpy (x1 = 0.0904) of 0.0755 kcal/mol and an excess molar enthalpy (x1 = 0.1297) of 0.0989 kcal/mol. The excess molar enthalpy (x1 = 0.1657) was 0.111 kcal/mol, the excess molar enthalpy (x1 = 0.2296) was 0.129 kcal/mol and the excess molar enthalpy (x1 = 0.3735) was 0.147 kcal/mol. It also gave an excess molar enthalpy (x1 = 0.5438) of 0.145 kcal/mol, an excess molar enthalpy (x1 = 0.6414) of 0.138 kcal/mol and an excess molar enthalpy (x1 = 0.7045) of 0.127 kcal/mol. For the same compound, the excess molar enthalpy (x1 = 0.7815) was 0.112 kcal/mol, the excess molar enthalpy (x1 = 0.8267) was 0.097 kcal/mol and the excess molar enthalpy (x1 = 0.8774) was 0.077 kcal/mol. For the same compound, the excess molar enthalpy (x1 = 0.9051) was 0.0631 kcal/mol and the excess molar enthalpy (x1 = 0.9662) was 0.0246 kcal/mol.

`CC1COC(=O)O1` (stereo unspecified) + CS(C)=O gave an excess molar enthalpy (x2 = 0.0571) of 0.0186 kcal/mol, an excess molar enthalpy (x2 = 0.108) of 0.0332 kcal/mol and an excess molar enthalpy (x2 = 0.1538) of 0.0457 kcal/mol. For the same compound, the excess molar enthalpy (x2 = 0.195) was 0.0545 kcal/mol, the excess molar enthalpy (x2 = 0.2666) was 0.0703 kcal/mol and the excess molar enthalpy (x2 = 0.3264) was 0.0803 kcal/mol. The excess molar enthalpy (x2 = 0.4209) was 0.0915 kcal/mol, the excess molar enthalpy (x2 = 0.492) was 0.0989 kcal/mol and the excess molar enthalpy (x2 = 0.6857) was 0.0949 kcal/mol. It also gave an excess molar enthalpy (x2 = 0.7441) of 0.0856 kcal/mol, an excess molar enthalpy (x2 = 0.8135) of 0.0712 kcal/mol and an excess molar enthalpy (x2 = 0.9458) of 0.0263 kcal/mol. The excess molar enthalpy (x2 = 0.9721) was 0.0139 kcal/mol.

`CCOC(=O)OCC` + CS(C)=O gave an excess molar enthalpy (x2 = 0.0666) of 0.0901 kcal/mol, an excess molar enthalpy (x2 = 0.1249) of 0.146 kcal/mol and an excess molar enthalpy (x2 = 0.1764) of 0.183 kcal/mol. It also gave an excess molar enthalpy (x2 = 0.2221) of 0.208 kcal/mol, an excess molar enthalpy (x2 = 0.3635) of 0.247 kcal/mol and an excess molar enthalpy (x2 = 0.4614) of 0.252 kcal/mol. It also gave an excess molar enthalpy (x2 = 0.6315) of 0.232 kcal/mol, an excess molar enthalpy (x2 = 0.7199) of 0.206 kcal/mol and an excess molar enthalpy (x2 = 0.7741) of 0.179 kcal/mol. The excess molar enthalpy (x2 = 0.8371) was 0.149 kcal/mol, the excess molar enthalpy (x2 = 0.8727) was 0.125 kcal/mol and the excess molar enthalpy (x2 = 0.9115) was 0.0939 kcal/mol. It also gave an excess molar enthalpy (x2 = 0.932) of 0.0755 kcal/mol and an excess molar enthalpy (x2 = 0.9536) of 0.0547 kcal/mol.
